# Laboratory results reported in publication PMC12040169 (PLOS Biology, 2025).
# Assay: in vitro
# Settings: human, hela cells, % viability
row,SMILES,"viability at 28.5 h, 10 µM [%]"
1,COC(=O)CCc1ccc(S(=O)(=O)N2CCN(Cc3cc(C)c(O)c(C)c3)CC2)cc1 [CBK062814],113
2,O=C(Cc1cccc(O)c1)N1CCCC1c1nc2ccccc2[nH]1 (centres unmarked) [CBK282346],91.9
3,CCCc1[nH]nc(O)c1CCc1ccc(OC)cc1OC [CBK081123],95.5
4,C[C@H]1CN(C(=O)c2cc(C3CC3)no2)[C@@H](C)CN1Cc1ccco1 [CBK281736],106
5,Cc1c(S(=O)(=O)Nc2ccnn2C)cnn1-c1ccccc1 [CBK062079],97.5
6,CS(=O)(=O)N1CC2(CCN(Cc3nc4ccccc4[nH]3)CC2)c2ccccc21 [CBK126672],89.2
7,COc1ccccc1C(NC(=O)N(C(C)C)C(C)C)c1nccn1C (centres unmarked) [CBK283834],81.9
8,COc1ccc(C(=O)N(Cc2ccco2)Cc2cc3ccccc3nc2O)cc1 [CBK269594],95.9
9,CN(C)CCCn1cccc1C=O [CBK261993G],90.3
10,CCOC(=O)CC(C)NS(=O)(=O)c1ccc(OC(F)(F)F)cc1 (centres unmarked) [CBK044954],104
11,CCOCC1CN(c2cc(CO)c(F)cn2)CCO1 (centres unmarked) [CBK304756],92
12,c1csc(CN2CCNCC2)c1 [CBK027324],105
13,Cc1ccc(-c2nnn(CC(=O)N(CCO)C(C(=O)NC3CCCC3)c3ccc(F)cc3)n2)o1 (centres unmarked) [CBK084756],89.2
14,COC(=O)c1sccc1NC(=O)COc1ccc([N+](=O)[O-])cc1Cl [CBK066828],109
15,CC(=O)N1CCCc2cc(C(O)CN(C)Cc3ccccc3)ccc21 (centres unmarked) [CBK282149],88.5
16,CCCc1n[nH]c(-c2ccc(Cl)cc2Cl)c1C(=O)OCC [CBK113548],107
17,CC1SC2(C(=O)Nc3ccccc32)N(c2ccc(Oc3ccccc3)cc2)C1=O (centres unmarked) [CBK103750],92.5
18,NCCCOc1nc2ccccc2nc1N1CCCC1 [CBK115287],95.8
19,CNC(=O)C1(Cc2ccc(-c3cccs3)cc2)CCN(C(=O)C2CCCCC2)CC1 [CBK285793],88
20,COc1ccc(/C=N/NS(=O)(=O)c2ccc(C)cc2)cc1CSc1ccccn1 [CBK263036],96
21,O=C(Nc1cccc(Cl)c1)c1cc2cc(O)ccc2cc1O [CBK016894],98.2
22,CCCN1CCC(NC(=O)Cn2nnc3ccccc3c2=O)CC1 [CBK305581],102

row,SMILES,"viability at 28.5 h, 10 µM [%]"
1,Cc1c(CNCCN2CCCC2=O)c2ccccc2n1C [CBK281519],84.6
2,C[C@]12CN(Cc3ccccc3)C[C@H]1NC(=O)c1ccccc1C2O (some centres unmarked) [CBK282302],112
3,Cc1cc(C(=O)N(C)C2CCCCC2)no1 [CBK057375],113
4,Cc1cc(C)c2c(n1)nn1c(C)c(CCC(=O)O)c(C)nc21 [CBK265892],98.2
5,Cc1cc(C(=O)N2CCCCCC2c2c(Cl)cnn2C)on1 (centres unmarked) [CBK284916],99.3
6,Cc1ccc(C2C(C(=O)c3sc(-c4ccccc4)nc3C)=C(O)C(=O)N2CCN(C)C)o1 (centres unmarked) [CBK234004],107
7,Cc1ccc(OCCn2cncc2-c2cn(C)nc2C)cc1 [CBK281626],93.7
8,CCc1nn(CC(=O)NC2CC2)c(=O)c2cc3sc(C)cc3n12 [CBK284099],91.9
9,COc1ccc(CNC(=O)CSc2nnc(-c3ccncc3)n2C)cc1 [CBK266613],95
10,Cc1nccn1CC(=O)N1CCCC(C)(C(=O)NC2CCCC2)C1 (centres unmarked) [CBK282210],91.8
11,CN(CCN1CCCCC1)C(=O)Cn1cnc2ccccc21 [CBK281515],90.6
12,CN1CCC(N(C)C(=O)NCc2ccc(C#N)cc2)C1 (centres unmarked) [CBK156005],89.3
13,O=C1c2ccccc2C(=O)N1CCCc1nc2c3c4c(sc3ncn2n1)CCCCC4 [CBK268540],93.4
14,N#Cc1ccc(OCCO)cc1 [CBK000723],107
15,Cc1cc(C[C@@H]2COC[C@H]2NCc2ccc(C(F)(F)F)cc2)on1 [CBK285463],107
16,Cc1nc(-c2cccnc2)[nH]c(=O)c1CC(=O)N1CCN(C)CC1C (centres unmarked) [CBK304950],100
17,CC1CCN(CC(O)c2ccc3c(c2)CCN3C(=O)C2CC2)CC1 (centres unmarked) [CBK282927],102
18,CC(=O)Nc1ccc(S(=O)(=O)Oc2ccc(/C=C3\SC(=N)NC3=O)cc2Cl)cc1 [CBK265357],100
19,CCOC(=O)c1sc(NC(=O)C2CCCCC2)nc1C [CBK057893],92.3
20,CCn1cc(CN2CCCCCC2c2cc(C)no2)c(C)n1 (centres unmarked) [CBK282159],95.6
21,NCC(=O)Nc1ccc(Br)cc1C(=O)c1ccccc1Cl [CBK264692B],90.5
22,CCc1nnc(NS(=O)(=O)c2ccc(N/C=C3\C(=O)N(c4ccc(Cl)cc4)N=C3C)cc2)s1 [CBK262416],110
